Results published in US7880025B2, “Ruthenium silyl-arene complex , and method for production thereof” (Takasago International Corporation, priority 2009, dated 2011).

Assay: Solubility of [RuCl2(arene)]2 complexes in 100 ml of solvent at 25° C. in various solvents

Question: For [RuCl2(mesitylene)]2, which “solubility in 100 ml of solvent, Acetone” value (solvent Acetone) is on record?
Answer: Its value is 0.01 g/100 ml.

Question: What about the “solubility in 100 ml of solvent, Chloroform” value (solvent Chloroform) of the same substance?
Answer: The value was 0.3 g/100 ml.

Question: And the “solubility in 100 ml of solvent, Methanol” value (solvent Methanol)?
Answer: Its value is 0.03 g/100 ml.

Question: And the “solubility in 100 ml of solvent, THF” value (solvent THF)?
Answer: Its value is 0.5 g/100 ml.

Question: What about the “solubility in 100 ml of solvent, Toluene” value (solvent Toluene) of the same substance?
Answer: The value was 0.2 g/100 ml.
